Blank lines part the entries; values can stand above or below the molecule they belong to.
Legend:
CCR7 = molecular target: T1, CCR7 (Homo sapiens, UniProt P32248); assay: Cellular arrestin recruitment assay (PathHunter eXpress CCR7 CHO-K1 β-Arrestin); assay type: cell-based; conditions: agonist concentration used for challenge
T1 construct: host or cells: CHO-K1 (PathHunter eXpress CCR7 β-Arrestin)
T1 sequence (P32248 25-378): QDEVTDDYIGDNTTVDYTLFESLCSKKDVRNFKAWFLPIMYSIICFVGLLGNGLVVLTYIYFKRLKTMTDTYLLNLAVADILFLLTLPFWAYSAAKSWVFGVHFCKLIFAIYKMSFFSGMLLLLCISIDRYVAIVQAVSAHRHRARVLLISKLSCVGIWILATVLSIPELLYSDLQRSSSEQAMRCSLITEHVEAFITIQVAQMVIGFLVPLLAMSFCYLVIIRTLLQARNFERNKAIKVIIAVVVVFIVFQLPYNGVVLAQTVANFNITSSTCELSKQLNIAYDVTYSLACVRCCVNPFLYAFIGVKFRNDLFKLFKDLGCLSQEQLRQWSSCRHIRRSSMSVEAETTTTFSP
Description: Microplates were read following signal generation with a PerkinElmer Envision™ instrument for chemiluminescent signal detection.

human CCR7 = molecular target: T2, human CCR7 (Homo sapiens, UniProt P32248, L145W); assay: Thermofluor stability assay (thermal shift, CPM dye) with purified CCR7-L145W; assay type: binding; conditions: Figure 4B; for thermo-stabilizing effect on CCR7 (in words): known chemokine receptor ligands tested for selectivity of the pocket
T2 construct: enhanced green fluorescent protein (eGFP) (C); decahistidine-tag (His10) (C); made in house; host or cells: Sf9 insect cells (baculovirus)
T2 sequence (P32248 25-348 L145W): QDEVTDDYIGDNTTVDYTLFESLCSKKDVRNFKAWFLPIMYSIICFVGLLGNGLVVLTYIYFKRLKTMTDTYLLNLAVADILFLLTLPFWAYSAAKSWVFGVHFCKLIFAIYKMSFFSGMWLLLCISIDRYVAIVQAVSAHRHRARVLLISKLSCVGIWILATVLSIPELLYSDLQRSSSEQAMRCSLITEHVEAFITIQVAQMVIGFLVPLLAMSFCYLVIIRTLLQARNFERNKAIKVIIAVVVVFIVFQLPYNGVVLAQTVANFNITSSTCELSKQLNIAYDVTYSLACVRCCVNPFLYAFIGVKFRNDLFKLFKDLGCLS
Method: The plate was sealed and incubated for 30 min on ice. A 1:100 (v/v) working solution of the CPM (N-[4-(7-diethylamino-4-methyl-3-coumarinyl)phenyl]maleimide) dye stock (3 mg/mL in DMSO) was prepared and 5.14 μL of this solution were added to each well and mixed thoroughly. Out of each well, 3 × 20 μL were distributed into 0.1 mL Rotor-Gene Q tubes (QIAGEN). […] The gain set was determined at the beginning of the run. The melting temperature (Tm) was calculated from the point of inflection.
All liquid-handling steps were performed using a Bravo automated liquid handling platform and a 96LT head.
Melting temperatures (Tm) in the thermofluor stability assays were calculated and analyzed by automated scripts based on a fit to the Boltzmann equation. Details on significance levels and number of experiments are given in the corresponding figure legends.

CCR5 receptor = conditions: ref Knepp et al., 2011; cited from earlier work
[1] = molecular target: T3, CCR7 in PathHunter eXpress CCR7 CHO-K1 β-Arrestin cells (human, UniProt P32248 25-378); assay: cell-based or functional assay
T3 sequence (looked up): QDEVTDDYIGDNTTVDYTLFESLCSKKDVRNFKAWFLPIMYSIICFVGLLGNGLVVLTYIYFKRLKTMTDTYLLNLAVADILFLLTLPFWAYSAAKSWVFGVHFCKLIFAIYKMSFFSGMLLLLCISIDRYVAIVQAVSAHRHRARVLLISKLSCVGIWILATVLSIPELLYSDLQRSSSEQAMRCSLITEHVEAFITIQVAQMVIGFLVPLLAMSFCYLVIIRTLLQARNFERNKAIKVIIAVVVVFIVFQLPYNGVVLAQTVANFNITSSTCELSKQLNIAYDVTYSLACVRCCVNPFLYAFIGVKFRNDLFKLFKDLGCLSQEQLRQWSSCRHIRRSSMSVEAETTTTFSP

EC80 concentration, arrestin recruitment (CCR7): 57 nM
Molecule: CCL19: native chemokine agonist of CCR7 (human CCL19)

Molecule: CC(C)Cc1ccc([C@@H](C)C(=O)NS(C)(=O)=O)cc1 [Reparixin]
thermo-stabilizing effect on CCR7 (in words) (human CCR7): Neither did the CXCR2 antagonist Danirixin nor the CXCR1 and CXCR2 antagonist Reparixin stabilize CCR7

Molecule: CC1(C)CN2C(CSC(=NC3CCCCC3)NC3CCCCC3)=CSC2=N1 [IT1t]
thermo-stabilizing effect on CCR7 (in words) (human CCR7): did not affect CCR7

Molecule: Maraviroc
stabilizing effect on CCR5 (CCR5 receptor): up to 18.9 °C | thermo-stabilizing effect on CCR7 (in words) (human CCR7): did not affect CCR7

stabilizing effect on CCR7 (human CCR7; hit from virtual and automated thermofluor screening (50 μM ligand)): 2.4 °C
Molecule: CCOc1ccc(NC(=O)C2CCN(C3=NS(=O)(=O)C(c4ccc(OC)cc4)=C3C)CC2)cc1 [CS-1]

arrestin recruitment in PathHunter eXpress CCR7 CHO-K1 β-Arrestin cells, dose response of CCL19 (EC50) [1]: 12 nM
B1: human CCL19 (ligand, UniProt Q99731 22-98, looked up)
chain: GTNDAEDCCLSVTQKPIPGYIVRNFHYLLIKDGCRVPAVVFTTLRGRQLCAPPDQPWVERIIQRLQRTSAKMKRRSS
modifications: radioactive label (2200 Ci/mmole) on the labeled part of the mixture

Source: PMC6709783, “Structural Basis for Allosteric Ligand Recognition in the Human CC Chemokine Receptor 7” (Cell, 2019)
